# In ChEMBL document CHEMBL1201862, “PubChem BioAssay data set” (2004):
# Calls of active or inactive are those of the source.
# Tests used:
# [1] = NIH-3T3 fibroblast cytotoxicity, dose response, cytotoxicity control, cell-based, fluorescence, Alamar Blue, secondary assay (AID 2327); type: functional;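 note: NIH-3T3 mouse fibroblasts cultured with fluconazole at 8 µg/mL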
# [2] = fluconazole-exposed Candida albicans growth modulators – fluorescence, retest, confirmation (AID 2467); type: functional, cell-based
# [3] = molecular target: T1, Corticotropin-releasing factor receptor 2/Corticotropin-releasing factor-binding protein (Homo sapiens, UniProt P24387+Q13324); assay: activators of CRF receptor 2 with binding protein – uHTS hits, confirmation (AID 602473); type: functional; conditions: read-out: EC50_Mean
# T1 sequence (Q13324 whole entry): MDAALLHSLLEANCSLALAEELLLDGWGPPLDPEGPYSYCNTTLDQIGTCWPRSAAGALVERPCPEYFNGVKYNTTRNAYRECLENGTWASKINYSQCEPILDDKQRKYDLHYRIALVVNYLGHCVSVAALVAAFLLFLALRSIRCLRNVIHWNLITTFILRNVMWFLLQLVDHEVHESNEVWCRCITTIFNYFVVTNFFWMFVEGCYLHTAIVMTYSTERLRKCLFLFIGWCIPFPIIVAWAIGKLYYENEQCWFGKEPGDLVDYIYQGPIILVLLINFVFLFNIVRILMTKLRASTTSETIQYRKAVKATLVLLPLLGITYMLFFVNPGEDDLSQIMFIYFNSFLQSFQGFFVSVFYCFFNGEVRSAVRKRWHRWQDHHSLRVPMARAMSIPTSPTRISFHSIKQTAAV
# T1 sequence (P24387 whole entry): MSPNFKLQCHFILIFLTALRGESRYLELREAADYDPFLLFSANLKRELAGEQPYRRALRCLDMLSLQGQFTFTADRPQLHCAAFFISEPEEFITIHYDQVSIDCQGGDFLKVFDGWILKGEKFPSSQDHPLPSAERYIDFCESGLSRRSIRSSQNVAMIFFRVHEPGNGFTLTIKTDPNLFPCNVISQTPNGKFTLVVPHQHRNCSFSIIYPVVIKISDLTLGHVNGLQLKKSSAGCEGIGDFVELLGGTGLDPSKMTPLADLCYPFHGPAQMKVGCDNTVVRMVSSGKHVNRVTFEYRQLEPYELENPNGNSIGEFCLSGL
# [4] = alpha-synuclein stem-loop luciferase translation blockers – H4 neuroglioma cells, luminescence, confirmation (AID 1988); type: functional, cell-based
# [5] = Trypanosoma cruzi growth suppression in host cells – NIH3T3 host cells, beta-gal luminescence, confirmation (AID 2044); type: functional, cell-based;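 note: intracellular parasites grown in NIH/3T3 mouse fibroblasts as host cells; luminescent beta-galactosidase reporter signal from transgenic T. cruzi replicating inside host cells; inhibitors lower the luminescence signal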
# [6] = NIH3T3 cell viability loss – ATP luminescence, mouse fibroblasts, counter-screen, dose response (AID 2010); type: functional, cell-based;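 note: cells exposed to compound for about 90 hours before reading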
# [7] = Luminescence Cell-Based Dose Response HTS to Identify Inhibitors of 5'UTR Stem-Loop Driven Prion Protein mRNA Translation in H4 Neuroglioblastoma Cells. [Related pubchem assays: 1827 (Project Summary), 1813 (Primary HTS)]; type: functional
# [8] = microbe, parasite or virus in culture; type: functional; conditions: Mycobacterium tuberculosis
# [9] = Luminescence Cell-Based Dose Retest to Confirm Inhibitors of Cancer Stem Cells. [Related pubchem assays (depositor defined):AID2717, AID2721]; type: functional; conditions: Homo sapiens
# [10] = luciferase reporter signal suppression in cells – H4 neuroglioma cells, luminescence, dose response (AID 1990); type: functional, cell-based
# [11] = viability of uninfected HEp-2 cells – cell-based, HTS, cytotoxicity control for RSV inhibitor project, dose response (AID 2410); type: functional; conditions: human respiratory syncytial virus
# [12] = molecular target: T2, Replicative DNA helicase DnaB (Mycobacterium tuberculosis, UniProt P9WMR3); assay: DnaB intein splicing inhibitors, dose response, biochemical, cell-free fluorescence (AID 449749); type: functional
# T2 sequence (P9WMR3 whole entry): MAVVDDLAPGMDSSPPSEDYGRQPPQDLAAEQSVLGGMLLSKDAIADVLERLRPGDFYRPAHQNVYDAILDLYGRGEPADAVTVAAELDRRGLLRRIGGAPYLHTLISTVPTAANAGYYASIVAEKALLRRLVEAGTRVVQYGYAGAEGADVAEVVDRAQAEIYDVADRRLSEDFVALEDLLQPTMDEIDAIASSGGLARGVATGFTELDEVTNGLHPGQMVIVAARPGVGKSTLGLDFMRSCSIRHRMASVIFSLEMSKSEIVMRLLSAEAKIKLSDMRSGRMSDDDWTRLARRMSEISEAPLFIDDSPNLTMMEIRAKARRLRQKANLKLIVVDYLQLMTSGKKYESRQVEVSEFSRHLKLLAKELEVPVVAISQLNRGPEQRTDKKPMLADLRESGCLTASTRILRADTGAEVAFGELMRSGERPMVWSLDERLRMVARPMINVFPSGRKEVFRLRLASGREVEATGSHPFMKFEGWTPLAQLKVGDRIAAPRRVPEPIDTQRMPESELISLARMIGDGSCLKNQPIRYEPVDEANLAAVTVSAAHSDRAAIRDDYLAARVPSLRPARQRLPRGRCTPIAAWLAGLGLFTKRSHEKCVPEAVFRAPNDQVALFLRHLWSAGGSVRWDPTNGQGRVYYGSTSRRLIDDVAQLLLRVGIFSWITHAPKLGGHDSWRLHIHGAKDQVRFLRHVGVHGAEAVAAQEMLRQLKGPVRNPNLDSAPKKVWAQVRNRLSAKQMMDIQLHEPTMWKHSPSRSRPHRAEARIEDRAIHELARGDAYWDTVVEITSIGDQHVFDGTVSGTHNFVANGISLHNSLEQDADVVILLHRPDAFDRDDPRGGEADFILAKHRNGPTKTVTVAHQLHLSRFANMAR
# [13] = tested on: INS1; assay: INS-1E survival protection against cytokine death – cell-based, luminescence, retest, dose response (AID 449756); type: functional; conditions: Rattus norvegicus;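 note: cell death triggered by IL-1 beta plus TNF-alpha plus IFN-gamma mixture; protective hits raise ATP signal compared with cytokine alone wells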
# [14] = molecular target: T3, Protein RecA (Mycobacterium tuberculosis, UniProt P9WHJ3); assay: Fluorescence Cell-Free Homogeneous Dose Retest to Identify Inhibitors of RecA-Intein Splicing Activity. [Related pubchem assays (depositor defined):AID2097, AID2223, AID489010, AID492950]; type: functional
# T3 sequence (P9WHJ3 whole entry): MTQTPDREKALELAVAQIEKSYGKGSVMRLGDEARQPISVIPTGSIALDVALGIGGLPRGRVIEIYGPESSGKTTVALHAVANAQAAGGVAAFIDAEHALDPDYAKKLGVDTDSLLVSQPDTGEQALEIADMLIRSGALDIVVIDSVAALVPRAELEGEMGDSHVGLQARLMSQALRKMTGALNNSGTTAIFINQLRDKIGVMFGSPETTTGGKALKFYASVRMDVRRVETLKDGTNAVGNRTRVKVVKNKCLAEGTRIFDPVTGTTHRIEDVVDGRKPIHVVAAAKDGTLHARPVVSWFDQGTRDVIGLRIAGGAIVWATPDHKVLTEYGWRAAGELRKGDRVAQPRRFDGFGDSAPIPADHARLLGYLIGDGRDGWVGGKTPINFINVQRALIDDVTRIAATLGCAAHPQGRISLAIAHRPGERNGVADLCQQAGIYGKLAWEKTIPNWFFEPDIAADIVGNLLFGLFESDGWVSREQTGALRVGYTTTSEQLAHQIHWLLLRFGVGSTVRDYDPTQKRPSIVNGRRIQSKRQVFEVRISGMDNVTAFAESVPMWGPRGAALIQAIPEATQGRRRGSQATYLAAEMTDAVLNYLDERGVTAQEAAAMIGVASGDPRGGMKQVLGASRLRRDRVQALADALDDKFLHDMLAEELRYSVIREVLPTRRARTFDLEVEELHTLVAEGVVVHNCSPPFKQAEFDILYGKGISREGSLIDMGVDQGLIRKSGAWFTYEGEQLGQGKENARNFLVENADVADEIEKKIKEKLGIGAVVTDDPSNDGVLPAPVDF
# [15] = molecular target: T4, Heat shock factor protein 1 (Mus musculus, UniProt P38532); assay: enhancement of HSF1-driven luciferase signal – cell-based, NIH3T3, luminescence, dose retest, confirmation (AID 435004); type: functional;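 note: stress induced by proteasome inhibitor MG132 added 30 min after compound; luciferase reporter driven by HSF1 response element in NIH3T3 cells; actives raise luminescence as potentiators of the MG132 stress response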
# T4 sequence (P38532 whole entry): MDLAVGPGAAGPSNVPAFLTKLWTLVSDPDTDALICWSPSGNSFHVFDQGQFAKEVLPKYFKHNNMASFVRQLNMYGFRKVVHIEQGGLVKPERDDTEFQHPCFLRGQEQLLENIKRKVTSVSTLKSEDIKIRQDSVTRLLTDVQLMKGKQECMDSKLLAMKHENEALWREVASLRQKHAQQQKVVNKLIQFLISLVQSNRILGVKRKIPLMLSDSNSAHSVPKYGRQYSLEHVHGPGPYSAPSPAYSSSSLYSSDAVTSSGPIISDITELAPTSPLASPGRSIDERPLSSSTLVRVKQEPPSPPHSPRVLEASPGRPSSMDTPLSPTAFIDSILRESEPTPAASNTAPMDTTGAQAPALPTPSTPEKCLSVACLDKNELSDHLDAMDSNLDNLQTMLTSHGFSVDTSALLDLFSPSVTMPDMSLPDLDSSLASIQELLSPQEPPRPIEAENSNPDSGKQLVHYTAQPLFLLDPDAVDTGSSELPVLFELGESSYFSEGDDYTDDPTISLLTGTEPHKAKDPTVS
# [16] = molecular target: Luciferin 4-monooxygenase (Photinus pyralis, UniProt P08659); assay: inhibition of purified Photinus pyralis luciferase – biochemical, luminescence, dose response (AID 1891)
# Chain of Luciferin 4-monooxygenase (P08659 whole entry): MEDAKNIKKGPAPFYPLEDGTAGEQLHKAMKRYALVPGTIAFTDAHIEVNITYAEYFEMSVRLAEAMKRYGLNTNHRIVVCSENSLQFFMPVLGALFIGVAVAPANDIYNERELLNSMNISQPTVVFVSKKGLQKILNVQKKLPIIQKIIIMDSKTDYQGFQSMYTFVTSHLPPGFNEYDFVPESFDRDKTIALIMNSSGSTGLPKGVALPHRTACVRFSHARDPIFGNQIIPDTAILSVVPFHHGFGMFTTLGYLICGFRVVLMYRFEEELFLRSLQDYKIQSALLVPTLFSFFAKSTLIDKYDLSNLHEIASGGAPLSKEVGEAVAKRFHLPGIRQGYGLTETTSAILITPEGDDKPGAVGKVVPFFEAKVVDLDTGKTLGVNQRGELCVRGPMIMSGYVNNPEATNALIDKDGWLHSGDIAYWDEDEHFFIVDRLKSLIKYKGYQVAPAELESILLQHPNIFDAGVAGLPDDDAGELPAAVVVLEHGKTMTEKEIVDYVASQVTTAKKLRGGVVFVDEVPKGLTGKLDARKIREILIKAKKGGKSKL
# [17] = Luminescence Cell-Based Dose Confirmation HTS to Identify Inhibitors of Platelet Dense Granule Release. [Related pubchem assays: 1663 (Primary HTS), 1678 (Summary of Project)]; type: functional
# [18] = molecular target: T5, Rac GTPase-activating protein 1 (Homo sapiens, UniProt Q9H0H5); assay: blockers of MgcRacGAP-driven Rac1 GTP hydrolysis – biochemical, ADP Hunter fluorescence, primary and confirmatory, confirmation (AID 624330); type: functional
# T5 sequence (Q9H0H5 whole entry): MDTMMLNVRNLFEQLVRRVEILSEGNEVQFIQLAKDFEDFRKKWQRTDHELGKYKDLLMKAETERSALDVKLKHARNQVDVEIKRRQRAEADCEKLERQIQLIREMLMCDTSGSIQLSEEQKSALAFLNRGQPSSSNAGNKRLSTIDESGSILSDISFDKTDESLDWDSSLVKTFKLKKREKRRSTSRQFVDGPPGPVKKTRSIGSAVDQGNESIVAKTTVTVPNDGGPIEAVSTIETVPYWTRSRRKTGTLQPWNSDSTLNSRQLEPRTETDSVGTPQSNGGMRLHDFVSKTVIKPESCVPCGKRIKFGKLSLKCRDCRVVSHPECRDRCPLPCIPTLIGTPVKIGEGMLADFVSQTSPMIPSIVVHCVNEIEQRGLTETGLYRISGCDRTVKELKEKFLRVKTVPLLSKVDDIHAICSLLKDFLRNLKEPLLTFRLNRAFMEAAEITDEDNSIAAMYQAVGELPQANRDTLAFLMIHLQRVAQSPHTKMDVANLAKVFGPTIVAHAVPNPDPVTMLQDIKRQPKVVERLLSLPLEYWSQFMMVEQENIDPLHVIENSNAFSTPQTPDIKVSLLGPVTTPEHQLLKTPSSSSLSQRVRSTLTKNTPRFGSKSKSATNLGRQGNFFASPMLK
structure (smiles),measurement,setting,value
Fc1ccc2c(c1)C(c1ccncc1)=NNC(c1cccnc1)=N2,EC50,[1],> 160 µM (inactive)
same,EC50,[2],2.26 µM (active)
O=C1/C(=C/c2ccc(O)cc2)SC(=S)N1Cc1cccnc1,EC50,[3],12.9 µM (active)
Cc1ccc(-n2nc(C)c3c(C)c(CCC(=O)Nc4ccc(CN5CCCC5)cc4)c(C)nc32)cc1,EC50,[4],8.22 µM (active)
same,EC50,[5],1.76 µM (active)
same,EC50,[6],> 60 µM (not active)
same,EC50,[7],> 120 µM (not active)
same,CC50,[8],8.7 µM (active)
same,AC50,[9],5.7 µM (active)
same,EC50,[10],9.39 µM (active)
CCc1ccccc1N(CC)C(=O)C1CCN(c2ncnc3c2nc2n3CCCCC2)CC1,CC50,[11],17.2 µM (active)
CCOc1ccc(-n2c(SCc3cc(=O)oc4cc(C)c(C(C)C)cc34)nnc2-c2cccnc2)cc1,CC50,[11],17.5 µM (active)
CN=C(S)NNC(=O)c1ccc(N(C)C)cc1,CC50,[11],> 50 µM (active)
Cc1nc2ccccc2cc1OCc1ccccc1,EC50,[1],> 160 µM (inactive)
same,EC50,[2],3.26 µM (active)
O=S(=O)(c1ccccc1)N1CCCC(c2nc(O)c3nnn(Cc4ccccc4Br)c3n2)C1 (stereo unspecified),CC50,[11],18.2 µM (active)
O=C(c1ccco1)c1coc2c1cc(O)c1ccccc12,AC50,[12],16.2 µM (active)
same,AC50,[13],27 µM (active)
same,EC50,[14],48.7 µM (active)
same,EC50,[15],65.4 µM (active)
c1coc(CNc2c3c(nc4ncnn24)CCC3)c1,CC50,[11],40.5 µM (active)
Cn1c(=O)c(C(=O)COC(=O)c2cc(C(F)(F)F)nc3c(C(F)(F)F)cccc23)c(N)n(CC2CC2)c1=O,CC50,[8],> 40 µM (active)
CCn1nc(C)c(C(=O)Nc2cc(Oc3cc(C)cc(C)c3)cc([N+](=O)[O-])c2)c1C,CC50,[8],22.7 µM (active)
COc1ccc(-c2oc3cccnc3c2C#CCO)cc1,CC50,[11],> 50 µM (active)
Cc1ccccc1C(=O)NC(=S)Nc1sc2c(c1C#N)CCC(C)C2 (stereo unspecified),CC50,[11],36.8 µM (active)
COC(=O)c1ccc(CSc2nc3ccccc3[nH]2)o1,CC50,[11],> 50 µM (active)
Cc1[nH]c2ccccc2c1N=Nc1ccccc1F,CC50,[11],18 µM (active)
CC1=[N+]([O-])C(C)(C)N(O)C1(C)C,EC50,[16],> 112 µM (not active)
same,EC50,[17],> 112 µM (not active)
same,EC50,[3],> 53 µM (inactive)
CC1(C)CC(=O)C2=C(C1)N=C(Nc1nc3ccccc3o1)NC2c1ccccn1 (stereo unspecified),CC50,[8],> 40 µM (active)
O=C(Oc1ccccc1-c1nnco1)c1ccc(Cl)cc1,CC50,[8],21.8 µM (active)
O=C1C=C(c2ccccc2)C(c2ccccc2)C1O (stereo unspecified),EC50,[3],> 53 µM (inactive)
CCN(CC)c1ccc(/N=C/c2ccccc2[N+](=O)[O-])cc1,IC50,[18],30.5 µM (active)
same,AC50,[13],33.2 µM (active)
CCOc1ccc(NC(=O)CCC(=O)N/N=C/c2ccc3c(c2)OCO3)cc1,EC50,[1],> 150 µM (inactive)
same,EC50,[2],> 38 µM (not active)
Oc1c(/C=N/Cc2ccc(F)cc2)[nH]c2ccc(Br)c(Cl)c12,AC50,[12],61.8 µM (active)
same,EC50,[14],2.44 µM (active)
same,CC50,[11],29.1 µM (active)
CN(C)c1nc(NCc2ccccc2)nc(N/N=C/c2ccc3c(c2)OCO3)n1,CC50,[8],> 40 µM (active)
